In data set [1] the test system is synaptic potentials (fEPSPs) in CA1 region of hippocampal slices. Kind of data set: Inhibition of synaptic potentials (fEPSPs) in hippocampal slices (species not specified for this result). Set-up: species or system adult rats and gerbils. On the procedure: Hippocampal slices were prepared from adult rats (200-300 g) and gerbils as described in Lee et al., Electrophysiology of Isolated Mammalian CNS Preparation (G. A. Kerkut and H. V. Wheat, eds. 1981), pp. 189-211. Field excitatory postsynaptic potentials (fEPSPs) were recorded in the stratum radiatum of the CA1 region in response to stimulation of Schaffer collateral/commisural afferents. Slices were superfused continuously with artificial cerebrospinal fluid (ACSF; described in Lee et al., and fEPSPs were sampled every 15 seconds.
The amplitude of fEPSPs responses was measured on-line and plotted over the time course of each experiment. The magnitude of the inhibitory effect of a compound on fEPSP amplitude was expressed as the percentage inhibition, according to the formula: Percentage inhibition=[(Amplitude in ACSF only--Amplitude in drug)[…]Amplitude in ACSF only]×100.

Data set [2] addresses T1, A1 adenosine receptors (Rattus norvegicus, UniProt P25099).
T1 construct: Rat cerebral cortical membranes and striatal membranes were prepared; from tissue; host or cells: rat cerebral cortical membranes
T1 sequence (P25099 1-326): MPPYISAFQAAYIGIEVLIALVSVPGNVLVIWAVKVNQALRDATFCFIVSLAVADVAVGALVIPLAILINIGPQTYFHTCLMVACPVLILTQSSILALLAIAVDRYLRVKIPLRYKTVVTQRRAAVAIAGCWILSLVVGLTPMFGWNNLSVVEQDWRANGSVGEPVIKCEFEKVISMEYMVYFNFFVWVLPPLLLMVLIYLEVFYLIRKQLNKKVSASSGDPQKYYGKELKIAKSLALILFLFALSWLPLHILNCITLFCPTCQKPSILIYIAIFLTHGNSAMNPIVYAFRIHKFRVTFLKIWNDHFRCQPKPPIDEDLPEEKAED
Kind of data set: Inhibition of [3H]N6-phenylisopropyladenosine binding to A1 adenosine receptors in rat cerebral cortex membranes. The following applies: for Ki: rat brain, vs 1.0 nM [3H]PIA, read-out: A1-Receptor Ki.
Protocol: Bound and free radioligand were separated by addition of 4 mL of a solution containing 50 mM Tris hydrochloride, at pH 7.4 at 5° C., followed by vacuum filtration using a Brandel Cell Harvester (Brandel, Gaithersburg, Md.) and a Whatman GF/B glass fiber filter with additional washes totaling 12 mL of buffer.
(§1) At least seven different concentrations spanning four orders of magnitude, adjusted appropriately for the IC50 of each compound, were used.

The test system of data set [3] is lipolysis. Kind of data set: In vivo lipolysis (serum glycerol) in rats. Set-up: species or system rat. The following applies: for lowering of serum glycerol levels: at 60 min. On the procedure: Sprague Dawley rats (200-250 g) were fasted overnight. A blood sample was taken from the tail vein 10 sec before the subcutaneous injection of the drug in vehicle (10% DMSO in saline). Additional blood samples were taken from the tail vein at 30, 60 and 90 min post-injection and were kept on ice and centrifuged (1000 Xg) within one-half hour. A perchloric acid extract (3%) of plasma was neutralized with potassium hydroxide, 3-[N-morpholino]propanesulfonic acid, and then assayed for glycerol as described in Eggstein, et al., Methods of Enzymatic Analysis (H. U. Bermeyer ed., 1974), pp. 1825-1831.

Data set [4] relates to lipolysis. Kind of data set: In vivo lipolysis (serum glycerol) in rats. Set-up: species or system rat. The following applies: post i.p. injection.
A short description of data set [5]: Rectal temperature in rats. It counts as in vivo, rat. To be noted: Sprague Dawley rats, vehicle caused small rise (approximately 1° C.). On the procedure:
Rectal temperature was then recorded.

Data set [6] can be described thus: Sedation in rats after i.p. injection. It counts as in vivo, rat. The following applies: 25 and 50 mg/kg i.p., during one hour.
In data set [7] the target is T2, A2 adenosine receptors (Rattus norvegicus, UniProt P30543). Kind of data set: Inhibition of [3H]CGS 21680 binding to A2 receptors in rat striatal membranes. Further details: Rat cerebral cortical membranes and striatal membranes were prepared; from tissue; host or cells: rat striatal membranes. To be noted: rat striatum.
Protocol: Membranes (about 80 μg protein, 5 mg wet weight, per tube) were incubated for one hour at 25° C. in a total volume of 1 mL. […] Filtration was carried out using a Brandel Cell Harvester, as above.
as §1
Data set [8] addresses T3, A1 adenosine receptors (Bos taurus, UniProt P28190).
T3 construct: calf brain; from tissue; host or cells: calf brain
T3 sequence (P28190 1-326): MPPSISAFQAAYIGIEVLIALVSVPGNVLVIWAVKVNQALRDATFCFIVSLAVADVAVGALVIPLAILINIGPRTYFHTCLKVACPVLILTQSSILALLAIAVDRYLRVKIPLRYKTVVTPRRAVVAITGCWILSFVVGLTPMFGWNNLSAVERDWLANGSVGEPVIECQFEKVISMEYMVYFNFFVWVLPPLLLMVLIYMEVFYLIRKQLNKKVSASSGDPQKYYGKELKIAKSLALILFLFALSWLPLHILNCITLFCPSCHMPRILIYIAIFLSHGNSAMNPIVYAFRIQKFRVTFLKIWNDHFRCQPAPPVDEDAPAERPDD
Kind of data set: Competitive binding at A1 receptors, calf brain (footnote f). The following applies: read-out: A1-Receptor Ki.

Data set [9] has as its target T2, A2 adenosine receptors. Kind of data set: Competitive binding at A2 receptors versus [3H]NECA (footnote c). To be noted: read-out: A2-Receptor Ki.

The text below walks through data of patent US5498605A (priority 1994, dated 1996).

T2 sequence (P30543 whole entry): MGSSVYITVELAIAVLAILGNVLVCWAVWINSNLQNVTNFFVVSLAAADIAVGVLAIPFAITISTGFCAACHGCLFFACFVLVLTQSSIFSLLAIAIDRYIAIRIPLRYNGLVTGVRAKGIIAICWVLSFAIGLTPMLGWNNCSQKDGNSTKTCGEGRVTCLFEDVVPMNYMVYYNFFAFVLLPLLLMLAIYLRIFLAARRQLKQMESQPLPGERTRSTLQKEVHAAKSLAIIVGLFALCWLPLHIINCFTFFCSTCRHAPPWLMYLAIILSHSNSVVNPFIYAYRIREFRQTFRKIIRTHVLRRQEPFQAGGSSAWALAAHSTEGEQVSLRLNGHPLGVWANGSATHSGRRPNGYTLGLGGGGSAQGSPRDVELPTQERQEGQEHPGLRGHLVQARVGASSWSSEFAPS

The term IC50 denotes the point on the concentration scale where inhibition reaches its midpoint. Read a low IC50 as inhibition by little substance. For orientation: Ki means the equilibrium dissociation constant of an inhibitor or competing ligand from its target. For the molecule `O=S(=O)(O)c1ccc(CCCNc2ncnc3c2ncn3[C@@H]2O[C@H](CO)[C@@H](O)[C@H]2O)cc1` [3-p-sulfophenylpropyl, N^6-3-p-sulfophenylpropyladenosine], the onset of action entry in data set [1] (compared with adenosine and CPA) was “slightly slower onset of action in this assay than adenosine itself, but a faster onset of action than CPA”. In addition, the IC50 in data set [1] (hippocampal slices) turned out to be 1700 nM. For the same molecule, the agonist action result in data set [1] (hippocampal slices) is listed as “clearly acts as an agonist”. Besides, the inhibition constant Ki in data set [2] was 610 ± 39 nM. In addition, the “affinity for the A1 cortical receptors (in words)” value in data set [2] (rat cerebral cortex) is recorded as “demonstrated affinity”. The entries for the “lowering of serum glycerol levels” value in data set [3] (0.5 mg/kg) and in [3] (1.0 mg/kg) were 30% and 34%, respectively. For the same molecule, the “effect on serum glycerol levels (inhibition of lipolysis, in words)” value in data set [3] (doses of 0.1-1.0 mmol/kg) is “lower serum glycerol levels”. For the same molecule, in [4], the “time of maximum effect on serum glycerol” value lay in the range of 30 to 60 min. In addition, the rectal temperature entry in [5] (i.c.v.) and in data set [5] (i.p.) was “caused rectal temperature depression” in each case. Besides, in data set [6], the sedation result was “moderate sedation”. For the same molecule, in data set [7], the “affinity for the A2 striatal receptors (in words)” value was “demonstrated affinity”.
For the molecule `CCCCCCCCCCNc1ncnc2c1ncn2[C@@H]1O[C@H](CO)[C@@H](O)[C@H]1O` [decyl], in data set [8], the Ki was 21 nM.
Regarding `OC[C@H]1O[C@@H](n2cnc3c(Nc4ccccc4)ncnc32)[C@H](O)[C@@H]1O` [phenyl, reference compound], in data set [2], the “Affinity ratio A1/A2” value came to 190 and the Ki was determined as 3.5 ± 0.5 nM. For the same molecule, the Ki in [9] was 663 nM.
